Measured values taken from patent US10221185B2, “Crystal form of substituted aminopyran derivativek” (Sichuan Haisco Pharmaceutical Co., Ltd., priority 2015, dated 2019).
Values belong to the compound of their own block, whether it stands above or below them.

How the values were obtained:
Assay type in all cases: physicochemical
[1] = Stability of crystal forms of Compound A kept dry at room temperature; conditions: Kept dry at room temperature for 14 d
[2] = Slurry competition experiments of crystal forms of Compound A at room temperature
Description: 2. Room temperature competition experiment between Crystal form I and Crystal forms II, III, IV of Compound A, examining the stability of the crystal forms in solvents such as water, ethanol, and water:ethanol (1:1) at room temperature, see Table 2 for details.

[3] = Chemical stability of Crystal form IV of Compound A (influencing factors: high temperature, light exposure, high humidity)
Description: A sample was investigated under the conditions and sampling time points shown in Table 4 below for influencing factors, and the results are shown in Table 5 below.

[4] = High humidity (92.5% RH), unsealed, 10 d
[5] = High humidity (92.5% RH), unsealed, 60 d
[6] = High temperature, unsealed, 40° C., 10 d
[7] = High temperature, unsealed, 40° C., 60 d
[8] = High temperature, unsealed, 60° C., 10 d
[9] = High temperature, unsealed, 60° C., 60 d

- Crystal form after transformation [1]: Crystal form III
- Stability of crystal form (conclusion in words) [1]: good stability
Compound: CS(=O)(=O)n1cc2c(n1)CN([C@@H]1C[C@H](N)[C@@H](c3cc(F)ccc3F)O[C@@H]1C(F)(F)F)C2 [Crystal form III, (2R,3S,5R,6S)-2-(2,5-difluorophenyl)-5-(2-(methylsulfonyl)pyrrolo[3,4-c]pyrazol-5(2H,4H,6H)-yl)-6-(trifluoromethyl)tetrahydro-2H-pyran-3-amine]

- Crystal form after transformation [1]: Crystal form II
- Stability of crystal form (conclusion in words) [1]: good stability
Compound: CS(=O)(=O)n1cc2c(n1)CN([C@@H]1C[C@H](N)[C@@H](c3cc(F)ccc3F)O[C@@H]1C(F)(F)F)C2 [Crystal form II, (2R,3S,5R,6S)-2-(2,5-difluorophenyl)-5-(2-(methylsulfonyl)pyrrolo[3,4-c]pyrazol-5(2H,4H,6H)-yl)-6-(trifluoromethyl)tetrahydro-2H-pyran-3-amine]

- Crystal form after transformation [1]: Crystal form IV
- Stability of crystal form (conclusion in words) [1]: good stability
- Appearance ([3]; 0 d): Off-white
- Moisture ([3]; 0 d): 0.19%
- Purity of Compound A ([3]; 0 d): 99.67%
- Appearance [3, 4]: Light yellow
- Moisture [3, 4]: 0.27%
- Purity of Compound A [3, 4]: 99.57%
- Appearance [3, 5]: Light yellow
- Moisture [3, 5]: 0.20%
- Purity of Compound A [3, 5]: 99.28%
- Appearance [3, 6]: Light yellow
- Moisture [3, 6]: 0.25%
- Purity of Compound A [3, 6]: 99.54%
- Appearance [3, 7]: Light yellow
- Moisture [3, 7]: 0.18%
- Purity of Compound A [3, 7]: 99.43%
- Appearance [3, 8]: Light yellow
- Moisture [3, 8]: 0.36%
- Purity of Compound A [3, 8]: 99.48%
- Appearance [3, 9]: Light yellow
- Moisture [3, 9]: 0.15%
- Purity of Compound A [3, 9]: 99.15%
- Appearance ([3]; Light exposure, unsealed, 10 d): Off-white
- Moisture ([3]; Light exposure, unsealed, 10 d): 0.32%
- Purity of Compound A ([3]; Light exposure, unsealed, 10 d): 99.51%
- Appearance ([3]; Light exposure, unsealed, 60 d): Off-white
- Moisture ([3]; Light exposure, unsealed, 60 d): 0.16%
- Purity of Compound A ([3]; Light exposure, unsealed, 60 d): 99.43%
Compound: CS(=O)(=O)n1cc2c(n1)CN([C@@H]1C[C@H](N)[C@@H](c3cc(F)ccc3F)O[C@@H]1C(F)(F)F)C2 [Crystal form IV of Compound A, (2R,3S,5R,6S)-2-(2,5-difluorophenyl)-5-(2-(methylsulfonyl)-pyrrolo[3,4]pyrazol-5(2H,4H,6H)-yl)-6-(trifluoromethyl)tetrahydro-2H-pyran-3-amine]
- Relative stability of crystal forms (conclusion in words) [2]: the most stable crystal form at room temperature
